Test system: cells derived from either Ku70 or Ku80 knock-out mice
Test: Survival experiments with Ku-deficient cells exposed to chemotherapeutic agents
Format: cell-based, mouse
Details: FIG. 12

| Molecule | sensitivity of Ku70 or Ku80 knock-out mouse cells to the agent (survival) |
| --- | --- |
| COc1cccc2c1C(=O)c1c(O)c3c(c(O)c1C2=O)C[C@@](O)(C(=O)CO)C[C@@H]3O[C@H]1C[C@H](N)[C@H](O)[C@H](C)O1 [adriamycin] | very sensitive |
| bleomycin | very sensitive |

— patent US7592319B2, “Uses of DNA-PK” (Sloan-Kettering Institute for Cancer Research, priority 1998, dated 2009)
